Patent US12123009B2, “Methods and compositions for PPO herbicide tolerance in plants” (Monsanto Technology LLC, priority 2015, dated 2024)

Assays:
[1] = test system: R0 transgenic soybean expressing HemG PPO with targeting peptide; assay: R0 transgenic soybean herbicide tolerance: percent injury scores; type: in vivo; conditions: seven days
Source text: This permitted the side-by-side comparison of seven different HemG PPO enzymes with thirty-seven different targeting peptides using the same promoter and 3′UTR elements for gene expression. These plant transformation constructs were used to transform soybean excised embryos (germplasm A3555) using A. tumefaciens and standard methods known in the art. Four hundred explants were inoculated for each construct resulting in twelve containers per construct. A sterile PPO herbicide solution was used for herbicide tolerance testing. The herbicide solution consisted of 0.3 g of S-3100 in crop oil concentrate (5.0 mL) and 495 mL of deionized water. This was filtered through a 0.45 micron Nalgene® Rapid-Flow™ Tissue Culture Filter Unit and Surfactant-Free Cellulose Acetate membrane filter unit (VWR, Radnor, PA, USA). The resulting sterile solution was shaken before application.
The plantlets in the non-sprayed containers corresponding to constructs having a score of 2 were transplanted at approximately 7 weeks post transformation and grown as R0 plants using standard methods known in the art. Plantlets corresponding to non-tolerant scores of 0 and 1 were also grown to serve as negative controls. The R0 plants were grown in a greenhouse under long-day nursery conditions (18 hr light at 80° F. then 6 hr dark at 74° F.) for approximately four weeks. At eleven weeks, the R0 plants were sprayed with two passes of the same herbicide solution (0.3 g of 5-3100) described above. Herbicide injury ratings were collected seven days after treatment.
The results of the herbicide tolerance application at eleven weeks to the R0 plants confirmed the low percent injury rating scores observed in the high-throughput screen at five weeks. Any injury rating of 30% or above was equivalent to non-transgenic soybean injury ratings. A few of the constructs stood out as providing very good tolerance to the herbicide application. […] Data are provided in Table 10, where n.d. indicates the analysis was not conducted.

[2] = test system: maize (LH244), non-transgenic or expressing H_N10 (SEQ ID NO:4); assay: Transgenic Maize Herbicide Tolerance I (R0 plants sprayed); type: in vivo; conditions: 7 days
Source text: The plant transformation constructs were annotated construct 1, 6, 11, and 16. For maize in planta testing, immature maize (LH244) embryos were transformed with using Agrobacterium tumefaciens and standard methods known in the art.
Leaf samples were collected from R0 plants and screened by PCR to determine the number of copies of the transgene inserted into the plant genome. The plants containing a single copy (single copy) were selfed and outcrossed to generate R1 and F1 seed for future testing, respectively. Plants containing multiple copies (multi-copy) were sprayed as follows: (1) 5 g/ha S-3100 at approximately the V5 growth stage followed by 10 g/ha S-3100 at approximately the V7 growth stage, for a total application of 15 g/ha S-3100 or (2) 10 g/ha S-3100 at approximately the V5 growth stage. The average percentage of injury, on a scale of 0-100 with zero being no injury and 100 being complete crop death, was assessed 7 days after the final treatment for each batch.

[3] = molecular target: Waterhemp (Amaranthus tuberculata) protoporphyrinogen oxidase (PPO), wild type; assay: PPO enzyme assay (plastid extract); type: biochemical; conditions: 3 μM protogen; pH 7.4, 30° C.; read-out: S-3100 IC50

Work on `CCOC(=O)COc1ncccc1Oc1cc(-n2c(=O)cc(C(F)(F)F)n(C)c2=O)c(F)cc1Cl` [S-3100, ethyl [3-2-chloro-4-fluoro-5-(1-methyl-6-trifluoromethyl-2,4-dioxo-1,2,3,4-tetrahydropyrimidin-3-yl)phenoxy]-2-pyridyloxylacetate] yielded a percent injury score ([1]; H_N20, TP6) of 15%, a percent injury score ([1]; H_N20, TP7) of 20% and a percent injury score ([1]; H_N30, TP1) of 5%. For the same compound, the percent injury score ([1]; H_N40, TP1) was 5%, the percent injury score ([1]; H_N40, TP4) was 15% and the percent injury score ([1]; H_N40, TP7) was 40%. It also gave a percent injury score ([1]; H_N40, TP8) of 30%, a percent injury score ([1]; H_N50, TP6) of 40% and a percent injury score ([1]; H_N90 (SEQ ID NO:11), TP20) of 5%. It also gave a percent injury score ([1]; H_N90 (SEQ ID NO:11), TP32) of 50%, a percent injury score ([1]; H_N90, TP1) of 3% and a percent injury score ([1]; H_N90, TP2) of 35%. It also gave a percent injury score ([1]; H_N90, TP3) of 30%, a percent injury score ([1]; H_N90, TP6) of 25% and a percent injury score ([1]; H_N90, TP7) of 15%. For the same compound, the percent injury score ([1]; H_N90, TP8) was 40%, the percent injury score ([1]; H_N100, TP1) was 15% and the percent injury score ([1]; H_N100, TP6) was 30%. The percent injury score ([1]; H_N100, TP7) was 30%, the “Average Injury” value ([2]; H_N10, construct 6, Treatment 1: 5 g/ha V5 then 10 g/ha V7 (15 g/ha total)) was 28.9% and the “Average Injury” value ([2]; H_N10, construct 16, Treatment 2: 10 g/ha V5) was 24.2%. For the same compound, the “Average Injury” value ([2]; nontransgenic, Treatment 1: 5 g/ha V5 then 10 g/ha V7 (15 g/ha total)) was 43.3%, the “Average Injury” value ([2]; nontransgenic, Treatment 2: 10 g/ha V5) was 26.7% and the IC50 [3] was 9 nM.
